The target in test [1] is T1, human Nav1.7 channels stably expressed in HEK 293 cells (Homo sapiens, UniProt Q15858).
T1 construct: expressed in transfected cells
The experiment in a line: PatchXpress 7000 automated patch-clamp, sodium current. The format is cell-based. As to conditions: 22° C., read-out: potency for the Nav 1.7 sodium ion channel (as measured by PatchXpress). The method in brief:
(§1)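 IC50 values came from Hill-equation fits of rundown-corrected inhibition. PatchXpress recordings at 22° C held cells 20 mV negative to V0.5 inact and applied 10 Hz trains of 30 ms steps to −20 mV (Nav1.7) or an 8000 ms prepulse 7 mV positive to V0.5 inact. […]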

Test [2] deals with T2, human Nav1.5 channels stably expressed in HEK 293 cells (Homo sapiens, UniProt Q14524).
T2 construct: expressed in transfected cells
T2 sequence (Q14524 whole entry): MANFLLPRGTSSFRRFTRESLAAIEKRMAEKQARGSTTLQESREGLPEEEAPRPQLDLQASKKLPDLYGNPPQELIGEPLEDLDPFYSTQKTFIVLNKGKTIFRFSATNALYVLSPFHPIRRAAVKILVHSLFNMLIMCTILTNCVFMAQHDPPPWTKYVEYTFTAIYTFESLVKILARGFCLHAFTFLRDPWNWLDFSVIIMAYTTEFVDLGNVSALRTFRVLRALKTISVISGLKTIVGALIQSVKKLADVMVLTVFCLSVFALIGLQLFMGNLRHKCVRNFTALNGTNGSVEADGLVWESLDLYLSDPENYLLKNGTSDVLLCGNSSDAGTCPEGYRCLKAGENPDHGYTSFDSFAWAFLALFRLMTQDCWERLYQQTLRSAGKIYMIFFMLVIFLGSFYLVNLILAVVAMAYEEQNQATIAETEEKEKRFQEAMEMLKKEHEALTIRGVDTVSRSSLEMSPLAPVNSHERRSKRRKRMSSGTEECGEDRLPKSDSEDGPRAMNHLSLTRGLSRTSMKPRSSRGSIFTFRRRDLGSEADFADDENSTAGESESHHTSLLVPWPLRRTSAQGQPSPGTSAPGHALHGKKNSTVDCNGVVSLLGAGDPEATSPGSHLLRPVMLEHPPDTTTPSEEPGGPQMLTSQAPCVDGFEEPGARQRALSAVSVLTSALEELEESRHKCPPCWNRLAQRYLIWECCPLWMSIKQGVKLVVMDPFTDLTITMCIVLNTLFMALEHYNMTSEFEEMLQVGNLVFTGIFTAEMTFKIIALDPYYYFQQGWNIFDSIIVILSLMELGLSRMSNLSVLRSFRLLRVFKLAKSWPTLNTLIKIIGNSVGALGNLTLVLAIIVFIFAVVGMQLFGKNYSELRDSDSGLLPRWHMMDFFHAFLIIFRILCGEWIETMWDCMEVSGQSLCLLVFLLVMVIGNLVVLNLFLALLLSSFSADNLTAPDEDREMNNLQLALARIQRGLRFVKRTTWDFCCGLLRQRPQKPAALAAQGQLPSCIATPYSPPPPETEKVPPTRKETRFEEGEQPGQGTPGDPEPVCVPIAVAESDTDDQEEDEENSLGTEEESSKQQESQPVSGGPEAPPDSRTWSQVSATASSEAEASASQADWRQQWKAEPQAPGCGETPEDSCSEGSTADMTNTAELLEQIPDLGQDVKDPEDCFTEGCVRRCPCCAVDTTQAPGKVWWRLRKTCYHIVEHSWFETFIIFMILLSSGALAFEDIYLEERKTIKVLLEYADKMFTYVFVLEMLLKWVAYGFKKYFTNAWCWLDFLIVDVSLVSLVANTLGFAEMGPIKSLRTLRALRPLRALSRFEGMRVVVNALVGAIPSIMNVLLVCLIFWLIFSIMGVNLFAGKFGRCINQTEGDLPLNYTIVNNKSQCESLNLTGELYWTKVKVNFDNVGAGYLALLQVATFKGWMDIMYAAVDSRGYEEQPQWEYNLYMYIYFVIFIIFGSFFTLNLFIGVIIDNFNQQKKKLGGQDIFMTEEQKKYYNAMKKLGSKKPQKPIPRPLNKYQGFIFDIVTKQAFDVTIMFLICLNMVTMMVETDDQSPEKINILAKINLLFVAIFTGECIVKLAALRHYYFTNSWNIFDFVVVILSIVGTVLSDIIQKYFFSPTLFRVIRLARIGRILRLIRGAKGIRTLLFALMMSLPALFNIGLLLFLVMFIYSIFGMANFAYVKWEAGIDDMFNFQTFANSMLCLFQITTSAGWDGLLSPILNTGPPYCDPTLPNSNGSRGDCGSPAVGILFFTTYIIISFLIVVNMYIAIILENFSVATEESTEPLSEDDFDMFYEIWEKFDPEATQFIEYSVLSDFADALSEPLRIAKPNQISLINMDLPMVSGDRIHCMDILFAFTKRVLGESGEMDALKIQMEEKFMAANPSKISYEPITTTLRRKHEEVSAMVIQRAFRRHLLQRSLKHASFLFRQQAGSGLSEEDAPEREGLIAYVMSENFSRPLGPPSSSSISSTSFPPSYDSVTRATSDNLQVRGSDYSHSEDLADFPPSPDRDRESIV
Described as above. Format: cell-based. The note with it: selectivity over Nav1.5. The method in brief:
as §1

T1 sequence (Q15858 whole entry): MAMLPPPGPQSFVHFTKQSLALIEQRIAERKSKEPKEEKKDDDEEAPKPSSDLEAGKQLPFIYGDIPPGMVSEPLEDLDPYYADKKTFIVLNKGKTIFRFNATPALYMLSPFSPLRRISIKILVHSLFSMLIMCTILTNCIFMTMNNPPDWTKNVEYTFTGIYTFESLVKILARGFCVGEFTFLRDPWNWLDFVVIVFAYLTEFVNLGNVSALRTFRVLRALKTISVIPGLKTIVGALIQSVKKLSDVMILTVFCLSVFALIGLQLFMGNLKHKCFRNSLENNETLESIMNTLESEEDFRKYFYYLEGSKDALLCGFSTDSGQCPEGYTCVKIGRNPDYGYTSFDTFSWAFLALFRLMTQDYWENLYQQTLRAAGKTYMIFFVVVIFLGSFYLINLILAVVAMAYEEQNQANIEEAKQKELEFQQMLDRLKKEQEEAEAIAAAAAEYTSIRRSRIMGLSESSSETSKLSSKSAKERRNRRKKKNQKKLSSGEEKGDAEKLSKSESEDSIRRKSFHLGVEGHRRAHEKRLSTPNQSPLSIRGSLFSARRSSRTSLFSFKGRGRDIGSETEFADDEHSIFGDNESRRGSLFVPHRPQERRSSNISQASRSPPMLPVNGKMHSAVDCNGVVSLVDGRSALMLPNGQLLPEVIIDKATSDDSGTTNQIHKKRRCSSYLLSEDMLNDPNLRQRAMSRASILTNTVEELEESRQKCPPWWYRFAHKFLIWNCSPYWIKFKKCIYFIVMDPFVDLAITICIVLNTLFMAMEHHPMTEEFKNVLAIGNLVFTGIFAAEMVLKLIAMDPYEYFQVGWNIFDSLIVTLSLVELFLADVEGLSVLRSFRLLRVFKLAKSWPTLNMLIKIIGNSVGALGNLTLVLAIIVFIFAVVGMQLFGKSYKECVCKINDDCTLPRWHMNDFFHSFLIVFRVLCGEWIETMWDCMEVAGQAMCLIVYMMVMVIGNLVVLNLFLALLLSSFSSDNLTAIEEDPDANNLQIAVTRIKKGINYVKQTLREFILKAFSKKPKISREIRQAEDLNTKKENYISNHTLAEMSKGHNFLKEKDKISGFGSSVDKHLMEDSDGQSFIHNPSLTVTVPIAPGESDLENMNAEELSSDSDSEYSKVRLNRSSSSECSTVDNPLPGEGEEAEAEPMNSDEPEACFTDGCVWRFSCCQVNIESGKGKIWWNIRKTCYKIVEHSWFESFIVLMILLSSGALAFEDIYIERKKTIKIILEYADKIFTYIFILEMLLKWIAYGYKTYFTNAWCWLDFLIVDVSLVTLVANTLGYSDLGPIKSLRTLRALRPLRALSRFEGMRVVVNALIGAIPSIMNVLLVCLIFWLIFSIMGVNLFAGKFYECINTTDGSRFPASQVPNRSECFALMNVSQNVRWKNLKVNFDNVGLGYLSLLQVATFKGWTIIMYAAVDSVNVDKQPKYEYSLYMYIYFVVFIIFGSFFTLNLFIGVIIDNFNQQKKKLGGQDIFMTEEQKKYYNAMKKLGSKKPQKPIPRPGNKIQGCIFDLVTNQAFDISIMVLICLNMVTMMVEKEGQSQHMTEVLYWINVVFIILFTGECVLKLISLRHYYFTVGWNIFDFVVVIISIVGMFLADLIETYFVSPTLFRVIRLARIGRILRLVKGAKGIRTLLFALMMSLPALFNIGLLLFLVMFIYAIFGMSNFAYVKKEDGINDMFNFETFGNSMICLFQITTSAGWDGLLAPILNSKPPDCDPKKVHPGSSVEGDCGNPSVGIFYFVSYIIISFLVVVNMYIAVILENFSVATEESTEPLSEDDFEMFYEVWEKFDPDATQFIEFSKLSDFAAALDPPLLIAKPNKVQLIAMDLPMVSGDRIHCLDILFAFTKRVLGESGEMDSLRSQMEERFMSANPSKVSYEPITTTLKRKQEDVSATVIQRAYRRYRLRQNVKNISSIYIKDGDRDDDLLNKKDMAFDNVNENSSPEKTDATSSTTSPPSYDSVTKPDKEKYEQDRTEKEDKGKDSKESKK

With `C[C@H](c1ccccc1C#CCC1CCCN1)n1c(=O)oc2cc(S(=O)(=O)Nc3ncns3)c(F)cc21` (stereo partly drawn) [Compound 17-13, 5-fluoro-2-oxo-3-{(1R)-1-[2-(3-pyrrolidin-2-ylprop-1-yn-1-yl)phenyl]ethyl}-N-1,2,4-thiadiazol-5-yl-2,3-dihydro-1,3-benzoxazole-6-sulfonamide], in test [1], the IC50 stood at 34 nM. The “ratio of Nav 1.5:Nav 1.7 potency, determined by PatchXpress measurement” value (“ratio of Nav 1.5:Nav 1.7 potency” below) in test [2] worked out at 789.
For `C[C@H](c1ccccc1C#CC1CCNC1)n1c(=O)oc2cc(S(=O)(=O)Nc3ncns3)c(F)cc21` (stereo partly drawn) [Compound 17-14, 5-fluoro-2-oxo-3-{(1R)-1-[2-(pyrrolidin-3-ylethynyl)phenyl]ethyl}-N-1,2,4-thiadiazol-5-yl-2,3-dihydro-1,3-benzoxazole-6-sulfonamide] the same measures were 34 nM and 1055.
For `C[C@H](c1ccccc1C#CCC(C)(C)N)n1c(=O)oc2cc(S(=O)(=O)Nc3ncns3)c(F)cc21` [Compound 17-15, 3-{(1R)-1-[2-(4-amino-4-methylpent-1-yn-1-yl)phenyl]ethyl}-5-fluoro-2-oxo-N-1,2,4-thiadiazol-5-yl-2,3-dihydro-1,3-benzoxazole-6-sulfonamide] the same measures were 32 nM and 1566.
For `C[C@H](c1ccccc1C#CC1CNC1)n1c(=O)oc2cc(S(=O)(=O)Nc3ncns3)c(F)cc21` [Compound 17-16, 3-{(1R)-1-[2-(azetidin-3-ylethynyl)phenyl]ethyl}-5-fluoro-2-oxo-N-1,2,4-thiadiazol-5-yl-2,3-dihydro-1,3-benzoxazole-6-sulfonamide] the same measures were 31 nM and 973.
`C[C@H](c1ccccc1C#C[C@@H]1CCCN1)n1c(=O)oc2cc(S(=O)(=O)Nc3ncns3)c(F)cc21` [Compound 17-17, 5-fluoro-2-oxo-3-[(1R)-1-{2-[(2S)-pyrrolidin-2-ylethynyl]phenyl}ethyl]-N-1,2,4-thiadiazol-5-yl-2,3-dihydro-1,3-benzoxazole-6-sulfonamide]: the IC50 in test [1] is 29 nM. Besides, the “ratio of Nav 1.5:Nav 1.7 potency” value in test [2] came out at 1034.
Regarding `C[C@H](c1ccccc1C#CCN1CCC1)n1c(=O)oc2cc(S(=O)(=O)Nc3ncns3)c(F)cc21` [Compound 17-18, 3-{(1R)-1-[2-(3-azetidin-1-ylprop-1-yn-1-yl)phenyl]ethyl}-5-fluoro-2-oxo-N-1,2,4-thiadiazol-5-yl-2,3-dihydro-1,3-benzoxazole-6-sulfonamide], in test [1], the IC50 is 28 nM. The “ratio of Nav 1.5:Nav 1.7 potency” value in test [2] was 1085.
For `CC(N)C#Cc1ccccc1[C@@H](C)n1c(=O)oc2cc(S(=O)(=O)Nc3ncns3)c(F)cc21` (stereo partly drawn) [Compound 17-19, 3-{(1R)-1-[2-(3-aminobut-1-yn-1-yl)phenyl]ethyl}-5-fluoro-2-oxo-N-1,2,4-thiadiazol-5-yl-2,3-dihydro-1,3-benzoxazole-6-sulfonamide] the same measures were 22 nM and 1390.
Taken in the same sequence, the figures for `C[C@H](c1ccccc1C#CCN)n1c(=O)oc2cc(S(=O)(=O)Nc3ncns3)c(F)cc21` [Compound 17-20, 3-{(1R)-1-[2-(3-aminoprop-1-yn-1-yl)phenyl]ethyl}-5-fluoro-2-oxo-N-1,2,4-thiadiazol-5-yl-2,3-dihydro-1,3-benzoxazole-6-sulfonamide] were 13 nM and 2324.
Consider `C[C@H](c1ccccc1C#C[C@H]1CCCN1)n1c(=O)oc2cc(S(=O)(=O)Nc3ncns3)c(F)cc21` [Compound 17-21, 5-fluoro-2-oxo-3-[(1R)-1-{2-[(2R)-pyrrolidin-2-ylethynyl]phenyl}ethyl]-N-1,2,4-thiadiazol-5-yl-2,3-dihydro-1,3-benzoxazole-6-sulfonamide], for which the IC50 in test [1] is 13 nM. The “ratio of Nav 1.5:Nav 1.7 potency” value in test [2] worked out at 2344.
Taken in the same sequence, the figures for `C[C@H](c1ccccc1C#CC1CCCCN1)n1c(=O)oc2cc(S(=O)(=O)Nc3ncns3)c(F)cc21` (stereo partly drawn) [Compound 17-22, 5-fluoro-2-oxo-3-{(1R)-1-[2-(piperidin-2-ylethynyl)phenyl]ethyl}-N-1,2,4-thiadiazol-5-yl-2,3-dihydro-1,3-benzoxazole-6-sulfonamide] were 13 nM and 1456.
Taken in the same sequence, the figures for `C[C@H](c1ccccc1C#CC1(N)CCCCC1)n1c(=O)oc2cc(S(=O)(=O)Nc3ncns3)c(F)cc21` [Compound 17-23, 3-[(1R)-1-{2-[(1-aminocyclohexyl)ethynyl]phenyl}ethyl]-5-fluoro-2-oxo-N-1,2,4-thiadiazol-5-yl-2,3-dihydro-1,3-benzoxazole-6-sulfonamide] were 12 nM and 2477.
Taken in the same sequence, the figures for `C[C@H](c1ccccc1CN1CCCC1)n1c(=O)oc2cc(S(=O)(=O)Nc3ncns3)c(F)cc21` [Compound 18-2, (R)-5-fluoro-2-oxo-3-(1-(2-(pyrrolidin-1-ylmethyl)phenyl)ethyl)-N-(1,2,4-thiadiazol-5-yl)-2,3-dihydrobenzo[d]oxazole-6-sulfonamide] were 24 nM and 446.
Consider `C[C@H](c1ccccc1CN1CCC(F)(F)C1)n1c(=O)oc2cc(S(=O)(=O)Nc3ncns3)c(F)cc21` [Compound 18-3, 3-[(1R)-1-{2-[(3,3-difluoropyrrolidin-1-yl)methyl]phenyl}ethyl]-5-fluoro-2-oxo-N-1,2,4-thiadiazol-5-yl-2,3-dihydro-1,3-benzoxazole-6-sulfonamide], for which the IC50 in test [1] came to 768 nM. Moreover, the “ratio of Nav 1.5:Nav 1.7 potency” value in test [2] came to 15.
Taken in the same sequence, the figures for `C[C@H](c1ccccc1CN1CCC(F)C1)n1c(=O)oc2cc(S(=O)(=O)Nc3ncns3)c(F)cc21` (stereo partly drawn) [Compound 18-4, 5-fluoro-3-[(1R)-1-{2-[(3-fluoropyrrolidin-1-yl)methyl]phenyl}ethyl]-2-oxo-N-1,2,4-thiadiazol-5-yl-2,3-dihydro-1,3-benzoxazole-6-sulfonamide] were 132 nM and 82.
Regarding `C[C@H](c1ccccc1CN(C)C)n1c(=O)oc2cc(S(=O)(=O)Nc3ncns3)c(F)cc21` [Compound 18-5, 3-[(1R)-1-{2-[(dimethylamino)methyl]phenyl}ethyl]-5-fluoro-2-oxo-N-1,2,4-thiadiazol-5-yl-2,3-dihydro-1,3-benzoxazole-6-sulfonamide], the IC50 in test [1] amounted to 13 nM. In test [2], the “ratio of Nav 1.5:Nav 1.7 potency” value stood at 525.
For `Cl.O=c1oc2cc(S(=O)(=O)Nc3ncns3)c(F)cc2n1Cc1cccc2c1CC(N1CC(F)(F)C1)CC2` (centres unmarked) [Compound 19-6, 3-((7-(3,3-difluoroazetidin-1-yl)-5,6,7,8-tetrahydronaphthalen-1-yl)methyl)-5-fluoro-2-oxo-N-(1,2,4-thiadiazol-5-yl)-2,3-dihydrobenzo[d]oxazole-6-sulfonamide hydrochloride] the same measures were 118 nM and 103.
Taken in the same sequence, the figures for `O=c1oc2cc(S(=O)(=O)Nc3ncns3)c(F)cc2n1Cc1cccc2c1CC(O)CC2` (centres unmarked) [Compound 21-1, 5-fluoro-3-((7-hydroxy-5,6,7,8-tetrahydronaphthalen-1-yl)methyl)-2-oxo-N-(1,2,4-thiadiazol-5-yl)-2,3-dihydrobenzo[d]oxazole-6-sulfonamide] were 121 nM and 113.
For the molecule `CC(=O)NC1CCc2cccc(Cn3c(=O)oc4cc(S(=O)(=O)Nc5ncns5)c(F)cc43)c2C1` (centres unmarked) [Compound 22-1, N-(8-((6-(N-(1,2,4-thiadiazol-5-yl)sulfamoyl)-5-fluoro-2-oxobenzo[d]oxazol-3(2H)-yl)methyl)-1,2,3,4-tetrahydronaphthalen-2-yl)acetamide], the IC50 in test [1] stood at 175 nM. In addition, the “ratio of Nav 1.5:Nav 1.7 potency” value in test [2] stood at 172.
For the molecule `Cl.O=c1oc2cc(S(=O)(=O)Nc3ncns3)c(F)cc2n1Cc1cccc2c1CNCC2F` (centres unmarked) [Compound 24-9, 5-fluoro-3-((4-fluoro-1,2,3,4-tetrahydroisoquinolin-8-yl)methyl)-2-oxo-N-(1,2,4-thiadiazol-5-yl)-2,3-dihydrobenzo[d]oxazole-6-sulfonamide hydrochloride], the IC50 in test [1] is 183 nM. Further, in test [2], the “ratio of Nav 1.5:Nav 1.7 potency” value amounted to 704.
Regarding `Nc1cc2c(Cn3c(=O)oc4cc(S(=O)(=O)Nc5ncns5)c(F)cc43)cccc2cn1` [Compound 26-5, 3-((3-Aminoisoquinolin-5-yl)methyl)-5-fluoro-2-oxo-N-(1,2,4-thiadiazol-5-yl)-2,3-dihydrobenzo[d]oxazole-6-sulfonamide], the IC50 in test [1] was 67 nM. Moreover, the “ratio of Nav 1.5:Nav 1.7 potency” value in test [2] turned out to be 450.
Taken in the same sequence, the figures for `Nc1cc2cccc(Cn3c(=O)oc4cc(S(=O)(=O)Nc5ncns5)c(F)cc43)c2cn1` [Compound 27-5, 3-((3-aminoisoquinolin-8-yl)methyl)-5-fluoro-2-oxo-N-(1,2,4-thiadiazol-5-yl)-2,3-dihydrobenzo[d]oxazole-6-sulfonamide] were 67 nM and 450.
For `O=c1oc2cc(S(=O)(=O)Nc3ncns3)ccc2n1Cc1cccc2cc(Cl)ncc12` [Compound 27-7, 3-[(3-chloroisoquinolin-8-yl)methyl]-2-oxo-N-1,2,4-thiadiazol-5-yl-2,3-dihydro-1,3-benzoxazole] the same measures were 182 nM and 144.

Source of the values: US9273040B2 (Merck Sharp & Dohme Corp., priority 2011, dated 2016).
